Test [1] has as its target CDK1B (Homo sapiens, UniProt P06493). The experiment in a line: Kinase assay CDK1B (radiometric profiling service). The format is biochemical. The settings on record: apparent Ki calculated from Km (ATP) and IC50; read-out: CDK inhibition Ki CDK1B. Put shortly:
(§1)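 Radiometric inhibition data for CDKs came from Eurofins or Reaction Biology profiling services; CDK4/D1 was also run in-house by ADP-Glo in […] pH 7.5, 20 mM MgCl2, 0.4 mM DTT, 0.1 mg/ml BSA with RB-CTF substrate, 40 min at 37 °C after ATP start. Ten-point 1:3 dilutions (10 μM–0.5 nM); four-parameter IC50, Ki from IC50 and ATP Km.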

Test [2] addresses CDK 2A (Homo sapiens, UniProt P24941). In words: Kinase assay CDK2A (radiometric profiling service). The format is biochemical. The settings on record: apparent Ki calculated from Km (ATP) and IC50; read-out: CDK inhibition Ki CDK 2A. Put shortly: as §1
In test [3] the target is T1, CDK4D1 (Homo sapiens, UniProt P11802).
T1 construct: purchased Eurofins Pharma Discovery or Reaction Biology Corporation (service)
In words: Kinase assay CDK4/D1 (radiometric or ADP Glo). It is filed as biochemical. As to conditions: apparent Ki calculated from Km (ATP) and IC50; read-out: CDK inhibition Ki CDK4D1. Put shortly:
as §1

Test [4] concerns the target T2, CDK6D3 (Homo sapiens, UniProt Q00534).
T2 construct: purchased Eurofins Pharma Discovery or Reaction Biology Corporation (service)
The experiment in a line: Kinase assay CDK6/D3 (radiometric or ADP Glo). As to conditions: apparent Ki calculated from Km (ATP) and IC50; read-out: CDK inhibition Ki CDK6D3. It is filed as biochemical. Summed up: as §1

The target of test [5] is CDK7H (Homo sapiens, UniProt P50613). In words: Kinase assay CDK7H (radiometric profiling service). As to conditions: for Ki: apparent Ki calculated from Km (ATP) and IC50, read-out: CDK inhibition Ki CDK7H. The format is biochemical. How it is done:
Eurofins Pharma Discovery or Reaction Biology Corporation Kinase Profiler services were used to measure inhibition of CDKs and other kinases by radiometric assay. Inhibition of CDK4/D1, CDK6/D3 and CDK9/T1 were also determined in-house using ADP Glo Kinase assays (Promega Corporation, Madison, USA). Briefly, the kinase reaction for CDK4/D1 and CDK6/D3 was performed with kinase reaction buffer ([…] Tris base pH 7.5, 20 mM MgCl2, 0.4 mM DTT), 0.1 mg/ml BSA and RB-CTF substrate (retinoblastoma protein1 C-terminal fraction). For CDK9/CyclinT1, the kinase reaction was performed with standard assay buffer and Kinase Dilution Buffer and RBER-IRStide substrate. Serial dilutions of 1:3 were prepared for test compounds for 10 concentrations (from 10 μM to 0.5 nM). The kinase reactions were started by addition of ATP, incubated for 40 min at 37° C. and then stopped by adding 10 μL of ADP Glo reagent. After incubation at room temperature in the dark for 40 min, 20 μL of kinase detection reagent was added per well and incubated for 40 min. Luminescence was measured using an EnVision Multilabel plate reader (PerkinElmer, Buckinghamshire, UK). Positive and negative controls were perfonned in the presence and absence of CDK kinases, respectively. Half-maximal inhibition (IC50) values were calculated using a 4-parameter logistic non-linear regression model with Graphpad prism (Version 6.0). Apparent inhibition constants (Ki) values were calculated from Km (ATP) and IC50 values for the respective kinases.

For test [6], the target named is T3, CDK9T1 (Homo sapiens, UniProt P50750).
T3 construct: purchased Eurofins Pharma Discovery or Reaction Biology Corporation (service)
In words: Kinase assay CDK9/T1 (radiometric or ADP Glo). The format is biochemical. As to conditions: for Ki: apparent Ki calculated from Km (ATP) and IC50, read-out: CDK inhibition Ki CDK9T1. Summed up: as §1

Test [7] concerns MV4-11. In words: Cell viability assay (resazurin, leukemia cell line) MV4-11. As to conditions: Homo sapiens, MV4-11, 72 h; read-out: Anti-proliferative activity GI50 MV4-11. It is filed as cell-based, human. From the text:
(§2) Compounds from Example 1 were subjected to a standard MTT (3-(4,5-dimethylthiazol-2-yl)-2,5-diphenyltetrazolium bromide) and resazurin assays on solid tumour cell lines and leukemia cell lines, respectively, as previously reported (Wang S et al., J Med Chem 47:1662-1675, 2004 and Diab S. et al. CheMedChem 9:962-972, 2014).
A general note: Alamar Blue is a resazurin reagent that responds to reducing activity.

Test [8] relates to MDA-MB-453. In words: Cell viability assay (MTT, solid tumour cell line) MDA-MB-453. The format is cell-based, human. The settings on record: Homo sapiens, MDA-MB-453, 72 h; read-out: Anti-proliferative activity GI50 MDA-MB-453.
Text: as §2

Chain of CDK1B (P06493 whole entry): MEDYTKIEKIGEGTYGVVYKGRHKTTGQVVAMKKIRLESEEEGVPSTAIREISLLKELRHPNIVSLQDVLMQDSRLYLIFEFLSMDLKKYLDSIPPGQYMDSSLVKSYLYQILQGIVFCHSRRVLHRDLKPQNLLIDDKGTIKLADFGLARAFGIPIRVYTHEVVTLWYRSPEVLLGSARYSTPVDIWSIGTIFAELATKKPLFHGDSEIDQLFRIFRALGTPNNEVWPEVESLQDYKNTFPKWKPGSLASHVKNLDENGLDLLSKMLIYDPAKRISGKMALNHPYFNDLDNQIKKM
Chain of CDK1B (P14635 whole entry partner): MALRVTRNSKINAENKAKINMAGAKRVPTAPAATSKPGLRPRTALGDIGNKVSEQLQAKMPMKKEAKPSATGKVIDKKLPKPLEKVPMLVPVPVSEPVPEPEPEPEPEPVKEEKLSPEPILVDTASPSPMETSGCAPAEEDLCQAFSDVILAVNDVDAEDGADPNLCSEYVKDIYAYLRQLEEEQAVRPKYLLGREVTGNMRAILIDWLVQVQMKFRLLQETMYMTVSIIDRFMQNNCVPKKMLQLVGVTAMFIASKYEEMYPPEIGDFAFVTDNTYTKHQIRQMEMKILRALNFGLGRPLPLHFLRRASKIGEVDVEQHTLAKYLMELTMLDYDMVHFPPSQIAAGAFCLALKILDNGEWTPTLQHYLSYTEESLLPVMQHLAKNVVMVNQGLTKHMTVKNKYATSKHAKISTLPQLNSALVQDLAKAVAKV
T3 sequence (P50750 whole entry): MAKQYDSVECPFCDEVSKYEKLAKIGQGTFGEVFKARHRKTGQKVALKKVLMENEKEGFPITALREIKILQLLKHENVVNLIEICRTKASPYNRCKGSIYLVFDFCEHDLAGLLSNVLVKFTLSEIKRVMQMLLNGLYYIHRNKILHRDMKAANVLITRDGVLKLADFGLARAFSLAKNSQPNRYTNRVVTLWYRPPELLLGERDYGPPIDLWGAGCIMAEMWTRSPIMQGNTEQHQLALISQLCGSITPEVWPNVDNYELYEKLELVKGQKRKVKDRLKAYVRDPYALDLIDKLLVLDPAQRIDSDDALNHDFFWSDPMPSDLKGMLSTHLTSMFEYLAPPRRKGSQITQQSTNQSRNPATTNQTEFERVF
T3 sequence (O60563 whole entry partner): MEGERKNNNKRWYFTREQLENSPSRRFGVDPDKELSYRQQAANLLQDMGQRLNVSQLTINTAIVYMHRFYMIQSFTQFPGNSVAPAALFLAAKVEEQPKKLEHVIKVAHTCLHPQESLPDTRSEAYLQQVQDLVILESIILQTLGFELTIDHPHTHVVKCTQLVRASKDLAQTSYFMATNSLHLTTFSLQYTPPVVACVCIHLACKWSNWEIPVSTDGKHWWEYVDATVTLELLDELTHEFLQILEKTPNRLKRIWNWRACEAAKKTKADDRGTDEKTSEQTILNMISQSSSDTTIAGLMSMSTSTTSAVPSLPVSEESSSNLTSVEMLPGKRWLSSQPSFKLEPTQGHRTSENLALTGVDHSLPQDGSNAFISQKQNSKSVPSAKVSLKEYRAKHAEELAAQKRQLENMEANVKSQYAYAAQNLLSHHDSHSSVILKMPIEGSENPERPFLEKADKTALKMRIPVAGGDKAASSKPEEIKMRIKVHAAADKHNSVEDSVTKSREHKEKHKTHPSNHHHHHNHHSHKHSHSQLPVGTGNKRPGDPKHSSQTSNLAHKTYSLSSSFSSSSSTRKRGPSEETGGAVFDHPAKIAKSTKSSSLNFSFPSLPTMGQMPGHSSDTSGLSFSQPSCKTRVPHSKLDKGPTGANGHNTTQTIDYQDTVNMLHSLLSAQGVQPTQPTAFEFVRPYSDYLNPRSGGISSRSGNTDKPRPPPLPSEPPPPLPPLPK
T1 sequence (P11802 whole entry): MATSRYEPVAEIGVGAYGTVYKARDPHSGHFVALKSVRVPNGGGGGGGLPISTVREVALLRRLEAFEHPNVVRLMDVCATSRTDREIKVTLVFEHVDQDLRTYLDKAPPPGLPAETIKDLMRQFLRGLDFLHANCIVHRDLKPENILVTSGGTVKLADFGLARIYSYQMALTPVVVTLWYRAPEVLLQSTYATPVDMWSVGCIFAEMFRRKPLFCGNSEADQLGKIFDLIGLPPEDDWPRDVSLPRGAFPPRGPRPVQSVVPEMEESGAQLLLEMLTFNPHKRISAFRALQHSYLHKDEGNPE
T1 sequence (P24385 whole entry partner): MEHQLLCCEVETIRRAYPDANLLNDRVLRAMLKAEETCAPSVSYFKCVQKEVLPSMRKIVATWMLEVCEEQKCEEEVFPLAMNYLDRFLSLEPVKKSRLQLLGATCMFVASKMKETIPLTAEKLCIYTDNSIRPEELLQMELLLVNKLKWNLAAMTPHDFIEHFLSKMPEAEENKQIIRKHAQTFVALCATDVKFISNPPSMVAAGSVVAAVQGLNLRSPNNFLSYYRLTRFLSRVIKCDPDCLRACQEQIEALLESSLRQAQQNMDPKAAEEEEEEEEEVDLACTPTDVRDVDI
Chain of CDK7H (P50613 whole entry): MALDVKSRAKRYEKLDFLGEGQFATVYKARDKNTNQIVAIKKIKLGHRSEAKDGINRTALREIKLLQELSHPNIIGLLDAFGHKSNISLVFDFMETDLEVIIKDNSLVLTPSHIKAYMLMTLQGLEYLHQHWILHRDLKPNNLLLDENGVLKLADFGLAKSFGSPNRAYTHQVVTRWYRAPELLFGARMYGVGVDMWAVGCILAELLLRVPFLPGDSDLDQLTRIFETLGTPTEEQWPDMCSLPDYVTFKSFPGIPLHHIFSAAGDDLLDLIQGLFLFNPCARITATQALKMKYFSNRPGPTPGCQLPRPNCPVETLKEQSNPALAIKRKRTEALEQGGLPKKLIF
Chain of CDK7H (P51946 whole entry partner): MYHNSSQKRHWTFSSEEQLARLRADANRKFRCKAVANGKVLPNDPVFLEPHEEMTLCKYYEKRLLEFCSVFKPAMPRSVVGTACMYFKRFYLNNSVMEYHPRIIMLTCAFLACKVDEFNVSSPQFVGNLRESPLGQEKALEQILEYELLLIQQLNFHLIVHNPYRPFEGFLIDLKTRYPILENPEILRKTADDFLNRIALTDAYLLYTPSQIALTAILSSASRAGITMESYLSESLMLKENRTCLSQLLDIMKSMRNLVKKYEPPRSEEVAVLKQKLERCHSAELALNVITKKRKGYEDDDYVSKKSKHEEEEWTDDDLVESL
Chain of CDK7H (P51948 whole entry partner): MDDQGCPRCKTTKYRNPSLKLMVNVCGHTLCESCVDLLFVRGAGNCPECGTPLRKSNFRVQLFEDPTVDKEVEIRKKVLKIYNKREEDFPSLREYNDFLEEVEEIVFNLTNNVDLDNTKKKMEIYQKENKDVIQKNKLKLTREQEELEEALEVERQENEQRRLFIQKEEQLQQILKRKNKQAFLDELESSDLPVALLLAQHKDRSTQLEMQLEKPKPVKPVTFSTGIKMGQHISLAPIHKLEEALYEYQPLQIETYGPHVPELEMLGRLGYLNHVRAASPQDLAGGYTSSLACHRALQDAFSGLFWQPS
T2 sequence (Q00534 whole entry): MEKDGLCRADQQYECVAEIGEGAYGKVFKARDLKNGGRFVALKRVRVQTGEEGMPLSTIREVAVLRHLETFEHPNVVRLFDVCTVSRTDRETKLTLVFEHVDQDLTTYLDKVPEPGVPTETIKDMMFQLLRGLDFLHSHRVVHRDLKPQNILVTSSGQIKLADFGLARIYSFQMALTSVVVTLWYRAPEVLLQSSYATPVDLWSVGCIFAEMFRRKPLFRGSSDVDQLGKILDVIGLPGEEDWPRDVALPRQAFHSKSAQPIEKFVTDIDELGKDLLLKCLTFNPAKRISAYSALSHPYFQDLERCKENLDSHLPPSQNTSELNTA
T2 sequence (P30281 whole entry partner): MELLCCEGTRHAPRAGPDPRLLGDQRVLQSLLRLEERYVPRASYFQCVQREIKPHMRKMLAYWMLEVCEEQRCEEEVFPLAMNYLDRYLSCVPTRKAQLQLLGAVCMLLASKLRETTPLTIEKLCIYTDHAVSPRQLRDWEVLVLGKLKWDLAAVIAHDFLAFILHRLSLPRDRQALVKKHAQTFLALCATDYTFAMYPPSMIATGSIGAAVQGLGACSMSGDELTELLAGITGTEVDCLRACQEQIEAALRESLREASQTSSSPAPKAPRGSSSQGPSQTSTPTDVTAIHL

A word on the GI50: it is the concentration at which growth is held to half of that of the control. For the compound `CCN1CCN(Cc2ccc(Nc3nccc(-c4sc(C(C)C)nc4C)n3)nc2)CC1` [Compound 18, N-(5-((4-ethylpiperazin-1-yl)methyl)pyridin-2-yl)-4-(2-isopropyl-4-methylthiazol-5-yl)pyrimidin-2-amine], the Ki in test [1] is more than 5000 nM; in test [2], 775 nM; in test [3], 28 nM; in test [4], 394 nM; in test [5], more than 5000 nM; in test [6], more than 10000 nM. The GI50 in test [7] came out at 418 ± 23 nM; in test [8], 166 ± 117 nM.

On to `Cc1nc(NC2CCCC2)sc1-c1nc(Nc2ccc(N3CCN(S(C)(=O)=O)CC3)cn2)ncc1F` [Compound 82, N-cyclopentyl-5-(5-fluoro-2-((5-(4-(methylsulfonyl)piperazin-1-yl)pyridin-2-yl)amino)pyrimidin-4-yl)-4-methylthiazol-2-amine], for which the Ki in test [1] was more than 5000 nM; in test [2], 348 nM; in test [3], 39 nM; in test [4] it was 101 nM; in test [5] it was more than 5000 nM; in test [6] it was more than 5000 nM. The GI50 in test [7] is 2630 ± 582 nM; in test [8], 2810 ± 89 nM.

On to `Cc1nc(C)c(-c2nc(Nc3ccc(N4CCNCC4)cn3)ncc2C#N)s1` [Compound 4, 4-(2,4-dimethylthiazol-5-yl)-2-((5-(piperazin-1-yl)pyridin-2-yl)amino)pyrimidine-5-carbonitrile], for which the Ki in test [1] is more than 5000 nM; in test [2], more than 5000 nM; in test [3], 31 nM; in test [4], 117 nM; in test [5], more than 5000 nM; in test [6], 2040 nM. Further, the values for the GI50 in test [7] and in test [8] were 296 ± 287 nM and 1970 ± 404 nM, respectively.

For the compound `Cc1nc(NC2CCCC2)sc1-c1ccnc(Nc2ccc(N3CCCCC3)cn2)n1` [Compound 75, N-cyclopentyl-4-methyl-5-(2-((5-(piperidin-1-yl)pyridin-2-yl)amino)pyrimidin-4-yl)thiazol-2-amine], the Ki is more than 5000 nM in test [1]; more than 5000 nM in test [2]; 70 nM in test [3]; 257 nM in test [4]; more than 5000 nM in test [5]; more than 5000 nM in test [6]. Besides, the GI50 in test [7] came out at 191 ± 29 nM; in test [8], 7040 ± 710 nM.

As to `Cc1nc(C)c(-c2ccnc(Nc3ccc(N4CCNCC4)cn3)n2)s1` [Compound 2, 4-(2,4-dimethylthiazol-5-yl)-N-(5-(piperazin-1-yl)pyridin-2-yl)pyrimidin-2-amine], the Ki was more than 5000 nM in test [1]; more than 5000 nM in test [2]; 55 nM in test [3]; 245 nM in test [4]; more than 5000 nM in test [5]; more than 5000 nM in test [6]. Further, the GI50 was 1021 ± 7 nM in test [7] and more than 10000 nM in test [8].

`Cc1nc(Nc2ccccc2)sc1-c1ccnc(Nc2ccc(N3CCN(C)CC3)cn2)n1` [Compound 90, 4-methyl-5-(2-((5-(4-methylpiperazin-1-yl)pyridin-2-yl)amino)pyrimidin-4-yl)-N-phenylthiazol-2-amine]: the Ki in test [1] is more than 5000 nM; in test [2], more than 5000 nM; in test [3], 19 nM; in test [4], 485 nM; in test [5], more than 5000 nM; in test [6] it was more than 5000 nM. Also, the figures for the GI50 in test [7] and in test [8] were 508 ± 42 nM and 494 ± 81 nM, respectively.

What is called remaining activity is what remains of the control signal, in per cent. Consider `CSc1nc(C)c(-c2ccnc(Nc3ccc(N4CCN(C(C)=O)CC4)cn3)n2)s1` [Compound 22, 1-(4-(6-((4-(4-methyl-2-(methylthio)thiazol-5-yl)pyrimidin-2-yl)amino)pyridin-3-yl)piperazin-1-yl)ethan-1-one], for which the Ki in test [1] is more than 5000 nM; in test [2], 4760 nM; in test [3], 190 nM; in test [4], 1950 nM. Also, the remaining activity at 10 µM in test [5] (compound at 10 μM, read-out: % remaining enzymatic activity at 10 μM CDK7H) is 86%; in test [6] (compound at 10 μM, read-out: % remaining enzymatic activity at 10 μM CDK9T1) it was 80%. Moreover, the GI50 in test [7] was 2510 ± 432 nM; in test [8], more than 10000 nM.

On to `Cc1nc(C(C)C)sc1-c1ccnc(Nc2ccc(N3CCNCC3)cn2)n1` [Compound 13, 4-(2-isopropyl-4-methylthiazol-5-yl)-N-(5-(piperazin-1-yl)pyridin-2-yl)pyrimidin-2-amine], for which the Ki in test [1] was 3740 nM; in test [2], 241 nM; in test [3], 11 nM; in test [4], 30 nM; in test [5] it was more than 5000 nM; in test [6] it was more than 5000 nM. Also, the GI50 in test [7] was 29 ± 19 nM; in test [8], 703 ± 71 nM.

On to `Cc1nc(C(C)C)sc1-c1ccnc(Nc2ccc(N3CCOCC3)cn2)n1` [Compound 17, 4-(2-isopropyl-4-methylthiazol-5-yl)-N-(5-morpholinopyridin-2-yl)pyrimidin-2-amine], for which the Ki in test [1] is 1440 nM; in test [2], 60 nM; in test [3], 1 nM; in test [4], 4 nM; in test [5], 4690 nM; in test [6], 1730 nM. Further, the values for the GI50 in test [7] and in test [8] were 649 ± 24 nM and 1050 ± 203 nM, respectively.

For `Cc1nc(SC(C)C)sc1-c1ccnc(Nc2ccc(N3CCN(C)CC3)cn2)n1` [Compound 24, 4-(2-(isopropylthio)-4-methylthiazol-5-yl)-N-(5-(4-methylpiperazin-1-yl)pyridin-2-yl)pyrimidin-2-amine], the Ki in test [1] is 3990 nM; in test [2] it was 180 nM; in test [3], 1 nM; in test [4], 15 nM; in test [5] it was more than 5000 nM; in test [6] it was 4610 nM. Besides, the GI50 in test [7] was determined as 66 ± 19 nM; in test [8] it was 4880 ± 214 nM.

As for `CNc1nc(C)c(-c2nc(Nc3ccc(N4CCNCC4)cn3)ncc2F)s1` [Compound 28, 5-(5-fluoro-2-((5-(piperazin-1-yl)pyridin-2-yl)amino)pyrimidin-4-yl)-N,4-dimethylthiazol-2-amine], the Ki in test [1] was 1360 nM; in test [2], 236 nM; in test [3], 4 nM; in test [4] it was 32 nM; in test [5] it was more than 5000 nM; in test [6], 784 nM. Further, the GI50 was 12 ± 3 nM in test [7] and 248 ± 44 nM in test [8].

Regarding `CC(=O)N1CCN(c2ccc(Nc3nccc(-c4sc(C)nc4C)n3)nc2)CC1` [Compound 1, 1-(4-(6-((4-(2,4-dimethylthiazol-5-yl)pyrimidin-2-yl)amino)pyridin-3-yl)piperazin-1-yl)ethan-1-one], the Ki in test [1] is more than 5000 nM; in test [2], more than 5000 nM; in test [3], 81 nM; in test [4], 590 nM; in test [5], more than 5000 nM; in test [6], more than 5000 nM. Moreover, the GI50 in test [7] was 1100 ± 345 nM; in test [8], more than 10000 nM.

Take `Cc1nc(SC(C)C)sc1-c1ccnc(Nc2ccc(N3CCNCC3)cn2)n1` [Compound 23, 4-(2-(isopropylthio)-4-methylthiazol-5-yl)-N-(5-(piperazin-1-yl)pyridin-2-yl)pyrimidin-2-amine]: the Ki in test [1] is more than 5000 nM; in test [2], 180 nM; in test [3], 30 nM; in test [4] it was 200 nM; in test [5], more than 5000 nM; in test [6], more than 5000 nM. In addition, the GI50 was 73 ± 25 nM in test [7] and 461 ± 59 nM in test [8].

Values taken from patent USRE49850E1, “N-(pyridin-2-yl)-4-(thiazol-5-yl)pyrimidin-2-amine derivatives as therapeutic compounds” (AUCENTRA THERAPEUTICS PTY LTD, priority 2015, dated 2024).
